In patent US20250064768A1, “METHODS AND COMPOSITIONS FOR TREATING AGING AND CHRONIC DISEASE” (priority 2021, published 2025):

Key:
[1] = Phase 2 clinical study of liposomal trans-crocetin: pharmacokinetics; settings: across different dosing regimens
mouse model of sepsis = settings: in vitro results and mouse model of sepsis
HUVECs = assay: Reoxygenation of hypoxic HUVECs (flow cytometry, BioTracker 520 green hypoxia dye); type: cell-based; settings: HUVECs under hypoxia (1%)
Method: The % P02 was assessed based on the readout of the BioTracker 520 green hypoxia dye. (FIG. 1G) Quantification of % P02 based on the flow cytometric data. (FIG. 1H) Quantification of % P02 based on the flow cytometric data of HUVECs incubated with 120 μg/mL LEAF-4L121 over time and (FIG. 11) as a function of various concentrations of LEAF-4L121 at 24 h.
In vitro, we first sought to evaluate the reoxygenation properties of LEAF-4L121 in endothelial cells (HUVECs). The IC50 of LEAF-4L121 in HUVECs was determined after 72 h of treatment by viability assays (CellTiter-Glo, Promega). […] We next incubated HUVECs in hypoxic conditions (1% P02) for 24 h before treatment with either free TC or various concentrations of LEAF-4L121. […] This rapid oxygenation effect of LEAF-4L121 is likely attributed to a biphasic release of TC from the liposomes that includes an initial fast release (approx. 25% in the first 6 h) of some of the payload followed by a more sustained release of TC from the liposomes over a prolonged period.

[2] = mouse, in vivo
Method: The clinical development of trans-crocetin has been problematic because its oxygen diffusion enhancing effect is transient, due to two key factors. Poor solubility: trans-crocetinate monovalent metal salts such as TSC, as free drugs were designed presumably to overcome the solubility issue associated with crocetin (free acid). Short half-life: TSC half-life is approximately 30 minutes, which in a clinical setting leads to transient effect on oxygen diffusion enhancement.

[3] = human, in vivo; cited from earlier work
[4] = in vivo; cited from earlier work

Row | Compound | AUC and Cmax versus body weight [1] | reoxygenation activity (mouse model of sepsis) | reoxygenation, PO2 (HUVECs; 30 min post-treatment, 5 μg/mL TC) | reoxygenation, PO2 (HUVECs; 3 h after treatment) | half-life (t½) [2] | safety in clinical trials [3] | half-life [4]
1 | CC(/C=C/C=C(\C)C(=O)O)=C\C=C\C=C(C)\C=C\C=C(/C)C(=O)O [TC, trans-crocetin] | stable levels of AUC and Cmax across a wide range of body weights | demonstrated the reoxygenation activity | up to 15 % PO2 | 5 % P02 |  |  | 
2 | CC(/C=C/C=C(\C)C(=O)[O-])=C\C=C\C=C(C)\C=C\C=C(/C)C(=O)[O-].[Na+].[Na+] [TSC, trans sodium crocetinate] |  |  |  |  | half an hour | no safety concerns | approximately 30 minutes
